The values that follow are results of earlier work, collected in patent publication US9443060B2, “Method and system to provide personalized pharmaceutical compositions and dosages” (Volant Holdings GMBH, priority 2009, dated 2016).

The test system of the data set is peripheral glucose uptake (PGU). The following applies: cited from earlier work.

`CN(C)C(=N)N=C(N)N` [Metformin]: the “increase in glucose infusion rate” value (Inzucchi, metformin 2000 mg daily, 12 weeks, euglycemic hyperinsulinemic clamp at 100 mg/dl) is 13%. Also, where the note is “Inzucchi, metformin 2000 mg daily, 12 weeks, euglycemic hyperinsulinemic clamp, before 240”, the glucose infusion rate is listed as 272 mg/m^−2/min^−1. Besides, under “Stumvoll, metformin, before 2.8±0.2”, the “rate of plasma glucose turnover” value was 2.0±0.2 mg/kg^−1/min^−1. For the same compound, the systemic glucose disposal result (Stumvoll, metformin) is reported as “did not change”. Also, where the note is “Tiikkainen, metformin 2000 mg daily, 16 weeks, clamp at 144 mg/dl, before 0.09±0.01, unchanged”, the “glucose rate of disappearance” value is 0.10±0.01 mg/kg^−1/min^−1.
